What was measured:
α-glucosidase [1] = target: T1, α-glucosidase (Saccharomyces cerevisiae, UniProt P53341); conditions: cited from earlier work
α-glucosidase [2] = target: T1, α-glucosidase; assay: Fluorescence quenching spectroscopy; format: binding; conditions: 35 °C
α-glucosidase [3] = target: T1, α-glucosidase; assay: Fluorescence quenching spectroscopy; format: binding; set-up: ΔS: unit not given here; conditions: for Kq quenching rate constant / n binding sites: 25 °C; for ΔS: standard thermodynamic values from KA
Description: Fluorescence spectrometry was used for studying the interactions between selected α-glucosidase inhibitors (7a, 7d, and 7h) and the enzyme at 25 °C and pH 6.8 to determine the binding constants, number of binding sites, and thermodynamic parameters of the corresponding interactions. Herein, the maximum fluorescence intensity of α-glucosidase was obtained at 340 nm, which can be attributed to tryptophan, tyrosine, and phenylalanine residues that can act as intrinsic fluorescence probes with excitation at 280 nm.
The fluorescence measurements were performed on a Synergy HTX multi-mode reader (Biotek Instruments, Winooski, VT, USA) equipped with a quartz cuvette of 10 mm. The excitation wavelength was 280 nm and the emission spectra were measured in the range from 300 to 440 nm with 10 accumulations for each collection point. The emission spectrum was corrected for the background fluorescence from the buffer solution and for the inner filter effect promoted by the inhibitors. The protein-inhibitors interaction measurements were performed by collecting the fluorescence.
The fluorescence quenching of the protein (P) by a drug or inhibitor (D) was analyzed by Stern−Volmer equation (Eq. 1), where F0 and F are the fluorescence intensity in the absence and presence of a quencher (inhibitor), respectively. [D] is the concentration of inhibitor, Kq is the quenching rate constant, τ0 is the average life-time of the molecule without the quencher (10^−8 s), and KSV is the Stern−Volmer dynamic quenching constant.1 F0/F=1+Kqτ0D=1+KSVD
The reaction of the protein (P) and a drug molecule or inhibitor (D) was considered as Eq. 2, where P is the protein, D is the drug molecule, and DnP is the new complex molecule with the binding constant of KA.2 P+D→DnP
As the number of the binding site of protein and drug is respectively n and 1, the equivalent concentration of the complex DnP is n[DnP]; the equivalent concentration of the protein is n[P] and the equivalent concentration of the drug is [D]. In this respect, the KA value is calculated based on the Eq. (3).3 KA=nDnP/DnP
If the total concentration of protein is [Pt] and the total concentration of the drug is [Dt]: [Pt] = [Pf] + [DnP] and [Df] = [Dt] − n[DnP].
If protein (P) is the only fluorescence in the reaction system, thus:4 F0/F=Pt/Pf where F and F0 are the fluorescence intensity of protein in the presence and absence of drug D, respectively. Therefore, the relationship between the fluorescence intensity and the drug total concentration can be deduced from Eq. (5).5 F0/F=KADtF0/F0-F-nKAPt
Keeping the total concentration of protein at a definite value and varying the total concentration of the drug leads to obtaining the plot of F0/F as a function of [Dt] F0/(F0 − F) following with the calculation of KA.
The standard thermodynamic values were calculated according to Eqs. (6), (7), where ΔH, ΔG, and ΔS are enthalpy, free energy, and entropy changes, respectively. In the case of small changes in temperature, the enthalpy change can be considered as a constant and ΔH is calculated from Eq. (6) following with the calculation of ΔG and ΔS from Eq. (7).6 lnKA2/KA1=1/T1-1/T2ΔH/R 7 ΔG=-RTlnKA=ΔH-TΔS

HEK293 cell line = conditions: no reference given; cited from earlier work

T1 sequence (P53341 whole entry): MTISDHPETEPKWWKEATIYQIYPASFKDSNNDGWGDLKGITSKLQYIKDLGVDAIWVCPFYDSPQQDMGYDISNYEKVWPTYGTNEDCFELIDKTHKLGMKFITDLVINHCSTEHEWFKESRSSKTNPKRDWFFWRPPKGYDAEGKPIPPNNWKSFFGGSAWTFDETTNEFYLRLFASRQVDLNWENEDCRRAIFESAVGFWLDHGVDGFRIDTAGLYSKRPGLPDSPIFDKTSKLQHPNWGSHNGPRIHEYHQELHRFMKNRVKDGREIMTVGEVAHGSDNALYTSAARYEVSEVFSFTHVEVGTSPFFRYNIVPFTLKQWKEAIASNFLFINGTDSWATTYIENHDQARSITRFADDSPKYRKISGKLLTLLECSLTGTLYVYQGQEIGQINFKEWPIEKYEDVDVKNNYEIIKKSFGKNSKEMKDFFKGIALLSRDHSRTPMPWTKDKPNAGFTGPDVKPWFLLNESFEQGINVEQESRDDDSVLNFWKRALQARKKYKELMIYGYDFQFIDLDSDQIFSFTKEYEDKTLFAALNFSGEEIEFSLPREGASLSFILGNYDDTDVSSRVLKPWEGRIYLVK

SMILES: O=c1oc2ccccc2c(O)c1C(c1ccc(OCc2cn(Cc3ccccc3Cl)nn2)cc1)c1c(O)c2ccccc2oc1=O [A]
- IC50 (α-glucosidase [1]): 13 ± 1.5 µM
- mode of inhibition (α-glucosidase [1]): competitive

SMILES: O=C1Nc2ccccc2/C1=N/N=C/c1ccc(OCc2cn(Cc3ccccc3F)nn2)cc1 [C]
- IC50 (α-glucosidase [1]): 16.43 ± 0.01 µM
- mode of inhibition (α-glucosidase [1]): competitively

SMILES: O=C(NN=Cc1ccccc1)c1ccc(OCc2cn(Cc3ccccc3)nn2)cc1 [Compound 7a, 4-((1-Benzyl-1H-1,2,3-triazol-4-yl)methoxy)-N′-benzylidenebenzohydrazide]
- Kq quenching rate constant (α-glucosidase [2]): 9e+15 L/mol/s
- Kq quenching rate constant (α-glucosidase [3]): 1.5e+15 L/mol/s
- n binding sites (α-glucosidase [3]): 0.8
- ΔS (α-glucosidase [3]): 48.37

SMILES: O=C(NN=Cc1ccccc1)c1ccc(OCc2cn(Cc3ccc(F)cc3)nn2)cc1 [Compound 7b, N′-Benzylidene-4-((1-(4-fluorobenzyl)-1H-1,2,3-triazol-4-yl)methoxy)benzohydrazide]
- melting point: 160 to 163 °C

SMILES: O=C(NN=Cc1ccccc1)c1ccc(OCc2cn(Cc3ccccc3Cl)nn2)cc1 [Compound 7c, N′-Benzylidene-4-((1-(2-chlorobenzyl)-1H-1,2,3-triazol-4-yl)methoxy)benzohydrazide]
- melting point: 203 to 207 °C

SMILES: Cc1ccc(Cn2cc(COc3ccc(C(=O)NN=Cc4ccccc4)cc3)nn2)cc1 [Compound 7d, N′-Benzylidene-4-((1-(4-methylbenzyl)-1H-1,2,3-triazol-4-yl)methoxy)benzohydrazide]
- melting point: 154 to 156 °C
- Kq quenching rate constant (α-glucosidase [2]): 1e+15 L/mol/s
- Kq quenching rate constant (α-glucosidase [3]): 4.2e+15 L/mol/s
- n binding sites (α-glucosidase [3]): 0.1
- ΔS (α-glucosidase [3]): 146.0

SMILES: O=C(NN=Cc1ccc([N+](=O)[O-])cc1)c1ccc(OCc2cn(Cc3ccccc3)nn2)cc1 [Compound 7e, 4-((1-Benzyl-1H-1,2,3-triazol-4-yl)methoxy)-N′-(4-nitrobenzylidene)benzohydrazide]
- melting point: 193 to 196 °C

SMILES: O=C(NN=Cc1ccc([N+](=O)[O-])cc1)c1ccc(OCc2cn(Cc3ccc(F)cc3)nn2)cc1 [Compound 7f, 4-((1-(4-Fluorobenzyl)-1H-1,2,3-triazol-4-yl)methoxy)-N′-(4-nitrobenzylidene)benzohydrazide]
- melting point: 202 to 205 °C

SMILES: O=C(NN=Cc1ccc([N+](=O)[O-])cc1)c1ccc(OCc2cn(Cc3ccccc3Cl)nn2)cc1 [Compound 7g, 4-((1-(2-Chlorobenzyl)-1H-1,2,3-triazol-4-yl)methoxy)-N′-(4-nitrobenzylidene)benzohydrazide]
- melting point: 204 to 206 °C

SMILES: Cc1ccc(Cn2cc(COc3ccc(C(=O)NN=Cc4ccc([N+](=O)[O-])cc4)cc3)nn2)cc1 [Compound 7h, 4-((1-(4-Methylbenzyl)-1H-1,2,3-triazol-4-yl)methoxy)-N′-(4-nitrobenzylidene)benzohydrazide]
- melting point: 247 to 250 °C
- Kq quenching rate constant (α-glucosidase [2]): 6.8e+15 L/mol/s
- Kq quenching rate constant (α-glucosidase [3]): 1e+15 L/mol/s
- n binding sites (α-glucosidase [3]): 0.06
- ΔS (α-glucosidase [3]): 71.1

SMILES: O=C(NN=Cc1ccc(Cl)cc1)c1ccc(OCc2cn(Cc3ccccc3)nn2)cc1 [Compound 7i, 4-((1-Benzyl-1H-1,2,3-triazol-4-yl)methoxy)-N′-(4-chlorobenzylidene)benzohydrazide]
- melting point: 211 to 214 °C

SMILES: O=C(NN=Cc1ccc(Cl)cc1)c1ccc(OCc2cn(Cc3ccc(F)cc3)nn2)cc1 [Compound 7j, N′-(4-Chlorobenzylidene)-4-((1-(4-fluorobenzyl)-1H-1,2,3-triazol-4-yl)methoxy)benzohydrazide]
- melting point: 236 to 238 °C

SMILES: O=C(NN=Cc1ccc(Cl)cc1)c1ccc(OCc2cn(Cc3ccccc3Cl)nn2)cc1 [Compound 7k, 4-((1-(2-Chlorobenzyl)-1H-1,2,3-triazol-4-yl)methoxy)-N′-(4-chlorobenzylidene)benzohydrazide]
- melting point: 246 to 248 °C

SMILES: Cc1ccc(Cn2cc(COc3ccc(C(=O)NN=Cc4ccc(Cl)cc4)cc3)nn2)cc1 [Compound 7l, N′-(4-Chlorobenzylidene)-4-((1-(4-methylbenzyl)-1H-1,2,3-triazol-4-yl)methoxy)benzohydrazide]
- melting point: 216 to 218 °C

SMILES: COc1ccc(C=NNC(=O)c2ccc(OCc3cn(Cc4ccccc4)nn3)cc2)cc1 [Compound 7m, 4-((1-Benzyl-1H-1,2,3-triazol-4-yl)methoxy)-N′-(4-methoxybenzylidene)benzohydrazide]
- melting point: 237 to 240 °C

SMILES: COc1ccc(C=NNC(=O)c2ccc(OCc3cn(Cc4ccccc4Cl)nn3)cc2)cc1 [Compound 7o, 4-((1-(2-Chlorobenzyl)-1H-1,2,3-triazol-4-yl)methoxy)-N′-(4-methoxybenzylidene)benzohydrazide]
- melting point: 222 to 225 °C

SMILES: COc1ccc(C=NNC(=O)c2ccc(OCc3cn(Cc4ccc(C)cc4)nn3)cc2)cc1 [Compound 7p, N′-(4-Methoxybenzylidene)-4-((1-(4-methylbenzyl)-1H-1,2,3-triazol-4-yl)methoxy)benzohydrazide]
- melting point: 224 to 228 °C

SMILES: CCc1ccc(NC(=O)Cn2cc(COc3ccc(-c4nc5ccccc5[nH]4)cc3)nn2)cc1 [Compound B]
- IC50 (α-glucosidase [1]): 25.2 ± 0.9 µM

SMILES: COC(=O)c1c(C)cc(OC(=O)c2c(C)cc(O)c(/C=N/NC(=O)Cc3ccccc3)c2O)c(C)c1O [E]
- toxicity on the HEK293 cell line (HEK293 cell line): without toxicity

From article PMC10235848, “Novel N′-substituted benzylidene benzohydrazides linked to 1,2,3-triazoles: potent α-glucosidase inhibitors” (Scientific Reports, 2023)
